Columns and labels:
NF-κ B activation = experiment: Inhibitory activity of NF-κB activation, luciferase reporter assay under TNF-α stimulation in HepG2; type: cell-based, human; conditions: HepG2, TNF-α 40 ng/ml, 4 hours; for inhibition at 1 µg/mL / inhibition at 10 µg/mL: Homo sapiens, read-out: Inhibitory rate against NF-κB activation (%)
Method in brief: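 HepG2 cells transiently transfected with luciferase reporter carrying five tandem NF-κB binding sites, then stimulated with TNF-α (40 ng/ml) ± compound for 4 hours. Luminescent luciferase activity measured; inhibition expressed relative to activity without compound.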

AP-1 activation = experiment: Inhibition against AP-1 activation by TNF α stimulation, luciferase reporter assay in HeLa; type: cell-based, human; conditions: TNF-α 40 ng/ml, 4 hours
Method: Measurement of Inhibition Against AP-1 Activation by TNF α Stimulation
Using a transfection reagent(Effectene; QIAGEN), the human uterine cancer cell strain HeLa was transfected with a plasmid(pAP-1-Luc Reporter Plasmid: […]) integrated with an oligonucleotide having seven tandem copies of AP-1 binding sequences(TGACTAA) on an upstream region of firefly luciferase gene(Luc) according to the QIAGEN's protocol, and the cells were incubated for 6 to 24 hours. After addition of TNF-α (40 ng/ml) in the presence or absence of a test compound, the cells were incubated for 4 hours, and intracellular luciferase activity was measured by using PicaGene LT(TOYO INK MFG Co., Ltd.) and a chemical luminescence measurement apparatus([…]luor Plus; TECAN). The inhibitory ratio was measured as a ratio relative to the value of the luciferase activity in the absence of the test compound.

Compound	Inhibitory rate against NF-κB activation (%) (NF-κ B activation; Drug concentration at 1 μg/mL)	Inhibitory rate against NF-κB activation (%) (NF-κ B activation; Drug concentration at 10 μg/mL)	inhibition at 1 µg/mL (NF-κ B activation; Drug concentration at 1 μg/mL)	further results
O=C(Nc1cc(C(F)(F)F)cc(C(F)(F)F)c1)c1cc(Br)ccc1O [compound 6]	94.9%	98.6%		Inhibitory rate against AP-1 activation(%) (AP-1 activation; Drug concentration at 1 μg/mL): 48.4%; Inhibitory rate against AP-1 activation(%) (AP-1 activation; Drug concentration at 10 μg/mL): 91.2%
O=C(Nc1nc(-c2ccccc2)c(C(=O)O)s1)c1cc(Br)ccc1O [compound 217, 2-(5-bromo-2-hydroxybenzoyl)amino-4-phenylthiazole-5-carboxylic acid]				inhibition at 1 µg/mL (AP-1 activation; Homo sapiens, Drug concentration at 1 μg/mL, read-out: Inhibitory rate against AP-1 activation(%)): 21.7%; inhibition at 10 µg/mL (AP-1 activation; Homo sapiens, Drug concentration at 10 μg/mL, read-out: Inhibitory rate against AP-1 activation(%)): 55.3%
CCOC(=O)c1sc(NC(=O)c2cc(Br)ccc2O)nc1C(F)(F)F [compound 224]	87.6%	96.5%		
CCOC(=O)c1sc(NC(=O)c2cc(-c3ccc(F)cc3)ccc2O)nc1-c1ccccc1 [compound 226]	45.0%	85.8%		
CCOC(=O)c1sc(NC(=O)c2cc(-c3ccc(F)cc3F)ccc2O)nc1-c1ccccc1 [compound 227]	31.8%	90.3%		
CCOC(=O)c1sc(NC(=O)c2cc(-c3ccc(C(F)(F)F)cc3)ccc2O)nc1-c1ccccc1 [compound 228, 2-{[4-Hydroxy-4′-(trifluoromethyl)biphenyl]-3-carbonyl}amino-4-phenylthiazole-5-carboxylic acid ethyl ester]		90.0%		
CCOC(=O)c1sc(NC(=O)c2cc(-n3cccc3)ccc2O)nc1-c1ccccc1 [compound 229]	74.0%	90.1%		
CCOC(=O)c1sc(NC(=O)c2cc(-c3cccs3)ccc2O)nc1-c1ccccc1 [compound 230, 2-[2-Hydroxy-5-(2-thienyl)benzoyl]amino-4-phenylthiazole-5-carboxylic acid ethyl ester]			40.8%	inhibition at 10 µg/mL (NF-κ B activation; Drug concentration at 10 μg/mL): 84.8%
O=C(Nc1nc(-c2cc(C(F)(F)F)cc(C(F)(F)F)c2)cs1)c1cc(Cl)ccc1O [compound 231, 5-Chloro-2-hydroxy-N-{4-[3,5-bis(trifluoromethyl)phenyl]thiazol-2-yl}benzamide]			95.9%	inhibition at 10 µg/mL (NF-κ B activation; Drug concentration at 10 μg/mL): 94.5%
CCOC(=O)c1c(NC(=O)c2cc(Cl)ccc2O)sc2c1CCCC2 [compound 232]	88.2%	85.4%		
O=C(Nc1cc(-c2ccccc2)[nH]n1)c1cc(Br)ccc1O [compound 233]	26.6%	84.7%		
CCc1nc(NC(=O)c2cc(Br)ccc2O)oc1CC [compound 234, 5-Bromo-N-(4,5-diethyloxazol-2-yl)-2-hydroxybenzamide]			29.1%	inhibition at 10 µg/mL (NF-κ B activation; Drug concentration at 10 μg/mL): 63.1%
O=C(Nc1nc(-c2ccccc2)c(-c2ccccc2)o1)c1cc(Br)ccc1O [compound 235]		81.8%		
O=C(Nc1nc(-c2ccco2)c(-c2ccco2)o1)c1cc(Br)ccc1O [compound 236, 5-Bromo-N-[4,5-bis(furan-2-yl)oxazol-2-yl]-2-hydroxybenzamide]			21.4%	inhibition at 10 µg/mL (NF-κ B activation; Drug concentration at 10 μg/mL): 56%
O=C(Nc1nnc(C(F)(F)F)s1)c1ccccc1O [compound 237, 2-Hydroxy-N-(5-trifluoromethyl-1,3,4-thiadiazol-2-yl)benzamide]				inhibition at 10 µg/mL (NF-κ B activation; Drug concentration at 10 μg/mL): 81.9%
O=C(Nc1nnc(C(F)(F)F)s1)c1cc(Br)ccc1O [compound 238]	26.1%	90.3%		
O=C(Nc1ccc(Cl)nc1)c1cc(Cl)ccc1O [compound 240]	14.3%	92.3%		
COc1cc(Cl)nc(NC(=O)c2cc(Cl)ccc2O)n1 [compound 241]	25.5%	78.9%		
O=C(Nc1cnc2ccccc2c1)c1cc(Cl)ccc1O [compound 242]		85.7%		
O=C(Nc1cccc(Br)n1)c1cc(Cl)ccc1O [compound 243]	84.2%	95.1%		

Compound	Inhibitory rate against NF-κB activation (%) (NF-κ B activation; Drug concentration at 1 μg/mL)	Inhibitory rate against NF-κB activation (%) (NF-κ B activation; Drug concentration at 10 μg/mL)	inhibition at 1 µg/mL (NF-κ B activation; Drug concentration at 1 μg/mL)	further results
O=C(Nc1cc(C(F)(F)F)cc(C(F)(F)F)c1)c1cc(S(=O)(=O)Nc2cc(C(F)(F)F)cc(C(F)(F)F)c2)ccc1O [compound 247]		>99.9%		
O=C(Nc1cc(C(F)(F)F)cc(C(F)(F)F)c1)c1cccc(-c2ccccc2)c1O [compound 249, N-[3,5-bis(trifluoromethyl)phenyl]-2-hydroxy-3-phenylbenzamide]			86.6%	inhibition at 10 µg/mL (NF-κ B activation; Drug concentration at 10 μg/mL): 90.7%
O=C(Nc1cc(C(F)(F)F)cc(C(F)(F)F)c1)c1ccc(F)cc1O [compound 250]	94.2%	95.4%		
N#Cc1ccc(Oc2ccc(C(F)(F)F)cc2NC(=O)c2cc(Cl)ccc2O)cc1 [compound 252]	93.9%	96.3%		
COc1ccc(Oc2ccc(C(F)(F)F)cc2NC(=O)c2cc(Cl)ccc2O)cc1 [compound 253]	96.3%	99.5%		
O=C(Nc1nc(-c2ccc(Cl)cc2Cl)cs1)c1cc(Cl)ccc1O [compound 255, 5-Chloro-2-hydroxy-N-[4-(2,4-dichlorophenyl)thiazol-2-yl]benzamide]			> 99.9%	
CC(C)c1cccc(C(=O)Nc2cc(C(F)(F)F)cc(C(F)(F)F)c2)c1O [compound 256, N-[3,5-bis(trifluoromethyl)phenyl]-2-hydroxy-3-isopropylbenzamide]			92.1%	
CC(C)c1cc(Br)cc(C(=O)Nc2cc(C(F)(F)F)cc(C(F)(F)F)c2)c1O [compound 257]	>99.9%			
Cc1cc(Br)cc(C(=O)Nc2cc(C(F)(F)F)cc(C(F)(F)F)c2)c1O [compound 258]	>99.9%			
O=C(Nc1cc(C(F)(F)F)cc(C(F)(F)F)c1)c1cc(Br)cc(-c2ccccc2)c1O [compound 259]	>99.9%			
O=C(Nc1nc(-c2ccc(Cl)c(Cl)c2)cs1)c1cc(Cl)ccc1O [compound 260, 5-Chloro-2-hydroxy-N-[4-(3,4-dichlorophenyl)thiazol-2-yl]benzamide]			> 99.9%	
O=C(Nc1nc(-c2ccc(C(F)(F)F)cc2)cs1)c1cc(Cl)ccc1O [compound 261, 5-Chloro-2-hydroxy-N-{4-[4-(trifluoromethyl)phenyl]thiazol-2-yl}benzamide]			> 99.9%	
O=C(Nc1cc(C(F)(F)F)cc(C(F)(F)F)c1)c1ccc(-c2ccccc2)cc1O [compound 262, N-[3,5-Bis(trifluoromethyl)phenyl]-2-hydroxy-4-phenylbenzamide]			> 99.9%	
O=C(Nc1nc(-c2cc(F)ccc2F)cs1)c1cc(Cl)ccc1O [compound 263, 5-Chloro-2-hydroxy-N-[4-(2,5-difluorophenyl)thiazol-2-yl]benzamide]			> 99.9%	
COc1ccc(-c2csc(NC(=O)c3cc(Cl)ccc3O)n2)cc1 [compound 264, 5-Chloro-2-hydroxy-N-[4-(4-methoxyphenyl)thiazol-2-yl]benzamide]			> 99.9%	
O=C(Nc1nc(-c2cccc(C(F)(F)F)c2)cs1)c1cc(Cl)ccc1O [compound 265, 5-Chloro-2-hydroxy-N-{4-[3-(trifluoromethyl)phenyl]thiazol-2-yl}benzamide]			> 99.9%	
O=C(Nc1nc(-c2c(F)c(F)c(F)c(F)c2F)cs1)c1cc(Cl)ccc1O [compound 266, 5-Chloro-2-hydroxy-N-[4-(2,3,4,5,6-pentafluorophenyl)thiazol-2-yl]benzamide]			> 99.9%	
Cc1ccc(C(=O)c2ccccc2)c(NC(=O)c2cc(Cl)ccc2O)c1 [compound 267]	28.6%			
O=C(Nc1cc(C(F)(F)F)ccc1C(F)(F)F)c1cc(Br)ccc1O [compound 268]	87.1%	98.4%		

— patent US20080234233A1, “MEDICAMENT FOR TREATMENT OF NEURODEGENERATIVE DISEASES” (INSTITUTE OF MEDICINAL MOLECULAR DESIGN INC., priority 2002, published 2008)
